“Also recorded” adds a separate entry of the source. Numbered stars: 1 amine (or outer) side, 2 acyl side, 3 side chain; on linkers, the order of the positions; unused ones are H or OH. Square brackets hold non-standard residues; d marks the D form. Ends that are not written are not given here. γGlu = O=C(O)[C@H](CCC(=O)[*:2])N[*:1]; Orn = NCCC[C@H](N)C(=O)O
Tests used:
[1] = DPPH-scavenging ability assay; type: biochemical; conditions: peptides; vs GSH
Method: 2. DPPH (2,2-Diphenyl-1-Picryl-Hydrazyl-Hydrate) Assay Method
The antioxidant activity due to the DPPH-scavenging ability of yeast hydrolyzates was measured using the methods of Choi Chang-seop et al. (2003) and Shekhar et al. (2014). 20 μl of a sample (1 to 5000 μg/ml) dissolved in distilled water was added to 180 μl of an ethanol solution containing DPPH (0.111 mM). The resulting mixture was allowed to react at 25° C. for 30 minutes, and absorbance was measured at 517 nm. Ascorbic acid was used to create the standard curve, and DPPH-scavenging ability (%) was calculated and expressed by the equation of [(absorbance upon no addition of sample−absorbance of sample)/absorbance upon no addition of sample]×100.
(§1) The DPPH-scavenging ability and reducing power of the fractions of respective yeast hydrolyzates (Preparation Examples 1 to 4) were measured using the same method of measuring DPPH-scavenging ability and reducing power as in Experimental Example 1.

[2] = Reducing power assay (method of Oyaizu); conditions: peptides; vs GSH
Method: 3. Reducing Power Assay Method
The reducing power of yeast hydrolysates was measured using the method of Oyaizu (1986). Specifically, a sample (1-5000 μg/ml, 60 μl) dissolved in distilled water was mixed with phosphate buffer (150 μl, 0.2M, pH 6.6) and potassium ferricyanide (K 3 Fe(CN) 6, 150 μl, 1%), followed by reacting at 50° C. for 20 minutes. Further, 150 μl of trichloroacetic acid (10%) was added thereto, followed by centrifugation at 2,000 g for 10 minutes. 150 μl of the supernatant containing the sample was added to 150 μl of DW and FeCl3 (30 μl, 0.1%). The resulting mixture was allowed to react at 25° C. for 10 minutes, and absorbance was measured at 700 nm.
as §1

Nrf2 mRNA = Nrf2 mRNA expression level by real-time PCR in Tert-BHP-treated HEK293 cells; type: cell-based; conditions: Tert-BHP 300 μM, peptide 500 μM, 18 hours; for effect on expression of Nrf2 mRNA: FIGS. 5A to 5C; for Nrf2 mRNA expression compared to positive control GSH: vs GSH
Method: In the present invention, the antioxidant activity was compared between the 100 types of peptides, and the change in Nrf2 mRNA expression was measured through PCR in order to select the final peptide.
An HEK293 cell (kidney cell) line was seeded at a density of 6.6×10^5/well in DMEM (Dulbecco's Modified Eagle's Medium) medium on a 6-well plate and cultured at 37° C. under 5% CO2 for 24 hours. The next day, the medium was exchanged with serum and amino-acid-free media, and then the cells were further cultured for 20 hours or longer. The cells were treated with Tert-BHP (300 μM) and 500 μM 100 types of peptides, and then cultured for 18 hours.
RNA was extracted from the cells treated with 100 types of peptides in (1) using TRIzol (Thermo Fisher Scientific). A GoScript™ Reverse Transcription System (Promega, Wisconsin, USA) was used to synthesize cDNA from the RNA. The cDNA was synthesized by performing annealing using 1 μg of RNA, 0.5 μg of an oligo dt primer, 0.5 μg of a random primer and RT-PCR pre-mixture at 25° C. for 5 minutes, extension at 42° C. for 60 minutes, and inactivation at 70° C. for 15 minutes.
(§2) PCR was performed using Maxime™ PCR PreMix (i-StarTaq) (Intron Biotechnology, Korea). Real-time PCR was performed using SsoAdvanced™ Universal SYBR® Green Supermix (Bio-Rad, USA). 100 ng of cDNA, 2 μM (pmol/μl) primers, 10 μl of 2X SsoAdvanced™ Universal SYBR® Green Supermix and DW were added to the PCR plate well. Then, the temperature was cyclically adjusted to 95° C. for 3 minutes, 95° C. for 10 seconds and 58° C. for 40 seconds for a total of 40 cycles. A PCR reaction was performed using a CFX96 Touch™ Real-Time PCR Detection System (Bio-Rad, California, USA), and fluorescence intensity was measured at the end of each cycle.

SOD2 mRNA = SOD2 mRNA expression level by real-time PCR in Tert-BHP-treated HEK293 cells; type: cell-based; conditions: Tert-BHP 300 μM, peptide 500 μM, 18 hours; for effect on SOD2 mRNA expression: FIG. 6; for SOD2 mRNA expression compared to positive control GSH: vs GSH
Method: The expression of SOD2 mRNA as another antioxidant factor was determined. The cell line culture, RNA extraction, cDNA synthesis and PCR experiments were performed in the same manner as in Experimental Example 5 above. A detailed description thereof is given below.
An HEK293 cell (kidney cell) line was seeded at a density of 6.6×10^5/well in DMEM (Dulbecco's Modified Eagle's Medium) medium on a 6-well plate and cultured at 37° C. and 5% CO2 for 24 hours. The next day, the medium was exchanged with serum and amino-acid-free media, and then the cells were further cultured for 20 hours or longer. The cells were treated with Tert-BHP (300 μM) and 500 μM 100 types of peptides, and then cultured for 18 hours.
RNA was extracted from the cells treated with 100 types of peptides in (1) using TRIzol (Thermo Fisher Scientific). A GoScript™ Reverse Transcription System (Promega, Wisconsin, USA) was used to synthesize cDNA from the RNA. The cDNA was synthesized by performing annealing with 1 μg RNA, 0.5 μg of an oligo dt primer, 0.5 μg of a random primer, and RT-PCR pre-mixture at 25° C. for 5 minutes, extension at 42° C. for 60 minutes, and inactivation at 70° C. for 15 minutes.
as §2, with “using the” for “using a”

γ-GLU-VAL-CYS ([γGlu]-Val-Cys; also: gamma-glutamyl isopeptide bond (Glu side chain to Val))
DPPH-scavenging ability of peptide compared to GSH [1]: comparable or superior to GSH
reducing power of peptide compared to GSH [2]: comparable or superior to GSH
effect on expression of Nrf2 mRNA (Nrf2 mRNA): improve the expression of Nrf2 mRNA
Nrf2 mRNA expression compared to positive control GSH (Nrf2 mRNA): remarkably excellent effect; also recorded: statistically significant activity; also recorded: comparable or superior to GSH
effect on SOD2 mRNA expression (SOD2 mRNA): increased SOD2 mRNA expression
SOD2 mRNA expression compared to positive control GSH (SOD2 mRNA): remarkably excellent; also recorded: statistically significant activity

γ-GLU-THR-GLY ([γGlu]-Thr-Gly; also: gamma-glutamyl isopeptide bond (Glu side chain to Thr))
DPPH-scavenging ability of peptide compared to GSH [1]: comparable or superior to GSH
reducing power of peptide compared to GSH [2]: comparable or superior to GSH
effect on expression of Nrf2 mRNA (Nrf2 mRNA): improve the expression of Nrf2 mRNA
Nrf2 mRNA expression compared to positive control GSH (Nrf2 mRNA): remarkably excellent effect; also recorded: statistically significant activity; also recorded: comparable or superior to GSH
effect on SOD2 mRNA expression (SOD2 mRNA): increased SOD2 mRNA expression
SOD2 mRNA expression compared to positive control GSH (SOD2 mRNA): remarkably excellent; also recorded: statistically significant activity

γ-GLU-VAL-ORN ([γGlu]-Val-[Orn]; also: γ-peptide bond from Glu side chain carboxyl to Val)
effect on expression of Nrf2 mRNA (Nrf2 mRNA): improve the expression of Nrf2 mRNA
effect on SOD2 mRNA expression (SOD2 mRNA): increased SOD2 mRNA expression

γ-GLU-VAL-GLY ([γGlu]-Val-Gly; also: gamma-glutamyl isopeptide bond (Glu side chain to Val))
effect on expression of Nrf2 mRNA (Nrf2 mRNA): improve the expression of Nrf2 mRNA
effect on SOD2 mRNA expression (SOD2 mRNA): increased SOD2 mRNA expression
SOD2 mRNA expression compared to positive control GSH (SOD2 mRNA): remarkably excellent

γ-GLU-GLN-GLU ([γGlu]-Gln-Glu)
DPPH-scavenging ability of peptide compared to GSH [1]: comparable or superior to GSH
reducing power of peptide compared to GSH [2]: comparable or superior to GSH
effect on expression of Nrf2 mRNA (Nrf2 mRNA): improve the expression of Nrf2 mRNA
Nrf2 mRNA expression compared to positive control GSH (Nrf2 mRNA): remarkably excellent effect; also recorded: statistically significant activity; also recorded: comparable or superior to GSH
effect on SOD2 mRNA expression (SOD2 mRNA): increased SOD2 mRNA expression
SOD2 mRNA expression compared to positive control GSH (SOD2 mRNA): remarkably excellent; also recorded: statistically significant activity

From patent US11925672B2, “Peptide having antioxidant activity and composition containing same” (SEMPIO FOODS COMPANY, priority 2018, dated 2024)
